Measured values reported in US20100098791A1, “COMPOSITION FOR TREATING XEROSTOMIA OR DRY MOUTH” (priority 2007, published 2010).

Assay: Dentin loss under extreme erosion conditions, composition versus its three ingredients separately (Example 8)
Parameters: species or system cow
Conditions: 10 cycles: 5 min pre-treatment, 1% citric acid pH 2.3 for 3 min
Protocol: The protective capacity of a mouthwash formulated with olive oil, trimethylglycine and xylitol in dentin subjected to extreme erosion conditions was analysed, compared to that of aqueous solutions of the three ingredients separately in the same concentrations used in the mouthwash tested. For the evaluation of effects a control was included consisting of distilled water.
Incisive teeth extracted from a cow's jaw were used, which were immersed in a 0.5% thymol solution at room temperature. The teeth were sectioned at the cementum-enamel junction by means of a water-cooled diamond scalpel (Exakt, Norderstedt, Germany), and the crowns and roots were embedded in acrylic resin cylinders (Paladur, Heraeus Kulzer, Wehrheim, Germany). Radicular cementum was completely eliminated. […]
Dentin loss was quantified performing profile or profilometric measurements (Mahr Perthometer, Göttingen, Germany). […] After the experiment the adhesive tapes were removed and the samples were analysed again. The average depth of the eroded surfaces was thus calculated with respect to basic surface profiles by means of specific software (Mahr Perthometer Concept 7.0, Mahr, Göttingen, Germany).
Dentin loss was calculated (mean±standard deviation) for each group and statistically analysed by Student's t test followed by Bonferroni's t test for multiple comparisons (Statistica 6.0, Statsoft, Tulsa, USA).

Row | SMILES | protective effect on dentin against erosion
1 | OC[C@@H](O)[C@H](O)[C@@H](O)CO [1% xylitol solution, xylitol] | did not demonstrate any protective effect
2 | C[N+](C)(C)CC(=O)[O-] [2% trimethylglycine solution, trimethylglycine] | did not demonstrate any protective effect
